According to patent publication US7528223B2 (priority 2002, dated 2009):

Tests used:
[1] = test system: peptide-specific T cells in patient-derived peripheral blood mononuclear cells (PBMC); assay type: cell-based, human (HLA-A*0201 HCV positive patient); settings: for Counts-mean size >10 / Counts-mean size >25 / Counts-mean size >75: IFN-g ELIspot spot counts, Patient, Plate 11_01_03, patient-derived PBMC; for Counts-mean size >10: spot size >10; for Counts-mean size >25: spot size >25; for Counts-mean size >75: spot size >75; for number of peptide-specific T cells (IFN-g Elispot): PBMC of patient cured of chronic HCV infection, frozen 1996 (Table 5, FIG. 3)
Description: Since those ncORF peptides are immunogenic in tg-mice, the present peptides were ananlysed in an ELIspot assay on PBL's from HCV+ patients.
Patient-derived peripheral blood mononuclear cells (PBMC) frozen in 1996 were thawed to perform an IFN-g Elispot assay with the following peptides: […]

[2] = test system: peptide-specific IFN-γ producing cells; design: species or system C57B1/6 mice; settings: mouse, in vivo, sc

Sequence	Counts-mean size >10 [1]	Counts-mean size >25 [1]	Counts-mean size >75 [1]	number of peptide-specific T cells (IFN-g Elispot) [1]	peptide-specific IFN-γ spots (ELIspot) [2]
FMLGALLPI [Ipep 1373]	159	86	3	high numbers of peptide-specific T cells	–
IASNENMETM [p1574, reference compound]	–	–	–	–	do not show any specific spots
LLLQRWALV [Ipep 1372]	43	36	13	high numbers of peptide-specific T cells	–
SSIAAQDAL [p1600]	–	–	–	–	do not show any specific spots
TLWAGPLLKV [Ipep 1371]	24	15	2	high numbers of peptide-specific T cells	–
TMLYNKMEF [p1569]	–	–	–	–	specifically release IFN-γ
VTILNLALL [p1664]	–	–	–	–	specifically release IFN-γ
